Values after ≈ are worked out from the molar mass of the structure shown.
System: E. coli
Test: MIC assay, E. coli
Assay type: cell-based

| Compound | MIC (μg/mL) E. coli [µg/mL] |
| --- | --- |
| CO[C@H]1/C=C/O[C@@]2(C)Oc3c(C)c(O)c4c(=O)c(c5oc6cc(N7C[C@H]8CCCN[C@H]8C7)cc(O)c6nc-5c4c3C2=O)NC(=O)/C(C)=C\C=C\[C@H](C)[C@H](O)[C@@H](C)[C@@H](O)[C@@H](C)[C@H](O)[C@@H]1C [Compound 15, 25-O-deacetyl-3′-hydroxy-5′-[(4aR,7aR)-octahydro-6H-pyrrolo[3,4-b]pyridin-6-yl]benzoxazinorifamycin] | >8 |
| CO[C@H]1/C=C/O[C@@]2(C)Oc3c(C)c(O)c4c(=O)c(c5oc6cc(N7CC8CCC(C7)N8)cc(O)c6nc-5c4c3C2=O)NC(=O)/C(C)=C\C=C\[C@H](C)[C@H](O)[C@@H](C)[C@@H](O)[C@@H](C)[C@H](O)[C@@H]1C [Compound 16, 25-O-deacetyl-3′-hydroxy-5′-(3,8-diazabicyclo[3.2.1]octan-3-yl)benzoxazinorifamycin] | 4 (≈ 4.6 µM) |
| CO[C@H]1/C=C/O[C@@]2(C)Oc3c(C)c(O)c4c(=O)c(c5oc6cc(N7CCC(N(C)C)CC7)cc(O)c6nc-5c4c3C2=O)NC(=O)/C(C)=C\C=C\[C@H](C)[C@H](O)[C@@H](C)[C@@H](O)[C@@H](C)[C@H](OC(C)=O)[C@@H]1C [Compound 17, 3′-hydroxy-5′-(4-N,N-dimethylamino-1-piperidinyl)benzoxazinorifamycin] | 8 (≈ 8.63 µM) |
| CO[C@H]1/C=C/O[C@@]2(C)Oc3c(C)c(O)c4c(=O)c(c5oc6cc(N7CCC(N(C)C)CC7)cc(O)c6nc-5c4c3C2=O)NC(=O)/C(C)=C\C=C\[C@H](C)[C@H](O)[C@@H](C)[C@@H](O)[C@@H](C)[C@H](O)[C@@H]1C [Compound 18, 25-O-deacetyl-3′-hydroxy-5′-(4-N,N dimethylamino-1-piperidinyl)benzoxazinorifamycin] | 4 (≈ 4.52 µM) |
| COC1C=COC2(C)Oc3c(C)c(O)c4c(=O)c(c5oc6cc(N7CC8C(N)C8C7)cc(O)c6nc-5c4c3C2=O)NC(=O)C(C)=CC=CC(C)C(O)C(C)C(O)C(C)C(O)C1C [Compound 20, 25-O-deacetyl-3′-hydroxy-5′-[6-amino-(1R,5S)-3-azabicyclo[3.1.0]hex-3-yl]benzoxazinorifamycin] | >8 |
| CCOC(=O)NC1C2CN(c3cc(O)c4nc5c6c7c8c(C)c(O)c6c(=O)c(c-5oc4c3)NC(=O)C(C)=CC=CC(C)C(O)C(C)C(O)C(C)C(OC(C)=O)C(C)C(OC)C=COC(C)(O8)C7=O)CC21 (centres unmarked) [Compound 21] | 4 (≈ 4.13 µM) |
| CO[C@H]1/C=C/O[C@@]2(C)Oc3c(C)c(O)c4c(=O)c(c5oc6cc(N7CCC(NC(=O)OC(C)C)CC7)cc(O)c6nc-5c4c3C2=O)NC(=O)/C(C)=C\C=C\[C@H](C)[C@H](O)[C@@H](C)[C@@H](O)[C@@H](C)[C@H](OC(C)=O)[C@@H]1C [Compound 22] | >8 |
| CO[C@H]1/C=C/O[C@@]2(C)Oc3c(C)c(O)c4c(=O)c(c5oc6cc(N7CCC(NS(=O)(=O)C(F)(F)F)CC7)cc(O)c6nc-5c4c3C2=O)NC(=O)/C(C)=C\C=C\[C@H](C)[C@H](O)[C@@H](C)[C@@H](O)[C@@H](C)[C@H](OC(C)=O)[C@@H]1C [Compound 23] | >8 |
| CCCC(=O)NC1CCN(c2cc(O)c3nc4c5c6c7c(C)c(O)c5c(=O)c(c-4oc3c2)NC(=O)/C(C)=C\C=C\[C@H](C)[C@H](O)[C@@H](C)[C@@H](O)[C@@H](C)[C@H](OC(C)=O)[C@H](C)[C@@H](OC)/C=C/O[C@@](C)(O7)C6=O)CC1 [Compound 24, 3′-hydroxy-5′-[4-butanamide-1-piperidinyl]benzoxazinorifamycin] | >8 |
| CO[C@H]1/C=C/O[C@@]2(C)Oc3c(C)c(O)c4c(=O)c(c5oc6cc(N7CCC(NS(C)(=O)=O)CC7)cc(O)c6nc-5c4c3C2=O)NC(=O)/C(C)=C\C=C\[C@H](C)[C@H](O)[C@@H](C)[C@@H](O)[C@@H](C)[C@H](OC(C)=O)[C@@H]1C [Compound 25] | >8 |
| CCCNC(=O)NC1CCN(c2cc(O)c3nc4c5c6c7c(C)c(O)c5c(=O)c(c-4oc3c2)NC(=O)/C(C)=C\C=C\[C@H](C)[C@H](O)[C@@H](C)[C@@H](O)[C@@H](C)[C@H](OC(C)=O)[C@H](C)[C@@H](OC)/C=C/O[C@@](C)(O7)C6=O)CC1 [Compound 28, 3′-hydroxy-5′-[4-propyluryl-1-piperidinyl]benzoxazinorifamycin] | >8 |
| COC(=O)NC1CCN(c2cc(O)c3nc4c5c6c7c(C)c(O)c5c(=O)c(c-4oc3c2)NC(=O)/C(C)=C\C=C\[C@H](C)[C@H](O)[C@@H](C)[C@@H](O)[C@@H](C)[C@H](O)[C@H](C)[C@@H](OC)/C=C/O[C@@](C)(O7)C6=O)CC1 [Compound 30, 25-O-deacetyl-3′-hydroxy-5′-[4-methylcarbamyl-1-piperidinyl]benzoxazinorifamycin] | >8 |
| CCOC(=O)NC1CCN(c2ccc3nc4c5c6c7c(C)c(O)c5c(=O)c(c-4n(C)c3c2)NC(=O)/C(C)=C\C=C\[C@H](C)[C@H](O)[C@@H](C)[C@@H](O)[C@@H](C)[C@H](O)[C@H](C)[C@@H](OC)/C=C/O[C@@](C)(O7)C6=O)CC1 [Compound 31] | 8 (≈ 8.64 µM) |
| CO[C@H]1/C=C/O[C@@]2(C)Oc3c(C)c(O)c4c(=O)c(c5oc6cc(N7CCC(N)CC7)cc(O)c6nc-5c4c3C2=O)NC(=O)/C(C)=C\C=C\[C@H](C)[C@H](O)[C@@H](C)[C@@H](O)[C@@H](C)[C@H](OC(C)=O)[C@@H]1C [Compound 33, 3′-hydroxy-5′-[4-amino-1-piperidinyl]benzoxazinorifamycin] | >8 |
| CCNC(=O)NC1CCN(c2cc(O)c3nc4c5c6c7c(C)c(O)c5c(=O)c(c-4oc3c2)NC(=O)/C(C)=C\C=C\[C@H](C)[C@H](O)[C@@H](C)[C@@H](O)[C@@H](C)[C@H](OC(C)=O)[C@H](C)[C@@H](OC)/C=C/O[C@@](C)(O7)C6=O)CC1 [Compound 34, 3′-hydroxy-5′-[4-ethyluryl-1-piperidinyl]benzoxazinorifamycin] | 8 (≈ 8.25 µM) |
| CCCC(=O)NC1CCN(c2cc(O)c3nc4c5c6c7c(C)c(O)c5c(=O)c(c-4oc3c2)NC(=O)C(C)=CC=CC(C)C(O)C(C)C(O)C(C)C(O)C(C)C(OC)C=COC(C)(O7)C6=O)CC1 (centres unmarked) [Compound 36, 25-O-deacetyl-3′-hydroxy-5′-[4-butanamide-1-piperidinyl]benzoxazinorifamycin] | >8 |
| CCNC(=O)NC1CCN(c2cc(O)c3nc4c5c6c7c(C)c(O)c5c(=O)c(c-4oc3c2)NC(=O)C(C)=CC=CC(C)C(O)C(C)C(O)C(C)C(O)C(C)C(OC)C=COC(C)(O7)C6=O)CC1 (centres unmarked) [Compound 37, 25-O-deacetyl-3′-hydroxy-5′-[4-ethyluryl-1-piperidinyl]benzoxazinorifamycin] | >8 |
| COC1C=COC2(C)Oc3c(C)c(O)c4c(=O)c(c5oc6cc(N7CCC(NS(=O)(=O)C(F)(F)F)CC7)cc(O)c6nc-5c4c3C2=O)NC(=O)C(C)=CC=CC(C)C(O)C(C)C(O)C(C)C(O)C1C (centres unmarked) [Compound 38] | >8 |
| COC1C=COC2(C)Oc3c(C)c(O)c4c(=O)c(c5oc6cc(N7CCC(NC(C)=O)CC7)cc(O)c6nc-5c4c3C2=O)NC(=O)C(C)=CC=CC(C)C(O)C(C)C(O)C(C)C(O)C1C (centres unmarked) [Compound 43, 25-O-deacetyl-3′-hydroxy-5′-[4-acetamide-1-piperidinyl]benzoxazinorifamycin] | >8 |
| COC1C=COC2(C)Oc3c(C)c(O)c4c(=O)c(c5oc6cc(N7CCC(NC(=O)OC(C)(C)C)CC7)cc(O)c6nc-5c4c3C2=O)NC(=O)C(C)=CC=CC(C)C(O)C(C)C(O)C(C)C(O)C1C (centres unmarked) [Compound 52, 25-O-deacetyl-3′-hydroxy-5′-[4-(2,2-dimethylethyl)carbamyl-1-piperidinyl]benzoxazinorifamycin] | >8 |
| COC1C=COC2(C)Oc3c(C)c(O)c4c(=O)c(c5oc6cc(N7CC8C(C7)C8N(C)C)cc(O)c6nc-5c4c3C2=O)NC(=O)C(C)=CC=CC(C)C(O)C(C)C(O)C(C)C(OC(C)=O)C1C [Compound 53, 3′-hydroxy-5′-[6-N,N-dimethylamino-(1R,5S)-3-azabicyclo[3.1.0]hex-3-yl]benzoxazinorifamycin] | >8 |
| COC1C=COC2(C)Oc3c(C)c(O)c4c(=O)c(c5oc6cc(N7CC8C(C7)C8N(C)C)cc(O)c6nc-5c4c3C2=O)NC(=O)C(C)=CC=CC(C)C(O)C(C)C(O)C(C)C(O)C1C [Compound 54, 3′-hydroxy-5′-[6-N,N-dimethylamino-(1R,5S)-3-azabicyclo[3.1.0]hex-3-yl]benzoxazinorifamycin] | >8 |
| COC1C=COC2(C)Oc3c(C)c(O)c4c(=O)c(c5oc6cc(N7CCC(CNC(C)=O)CC7)cc(O)c6nc-5c4c3C2=O)NC(=O)C(C)=CC=CC(C)C(O)C(C)C(O)C(C)C(O)C1C (centres unmarked) [Compound 56, 25-O-deacetyl-3′-hydroxy-5′-[4-acetylaminomethyl-1-piperidinyl]benzoxazinorifamycin] | 8 (≈ 8.76 µM) |
| CCOC(=O)NCC1CCN(c2cc(O)c3nc4c5c6c7c(C)c(O)c5c(=O)c(c-4oc3c2)NC(=O)C(C)=CC=CC(C)C(O)C(C)C(O)C(C)C(O)C(C)C(OC)C=COC(C)(O7)C6=O)CC1 (centres unmarked) [Compound 60, 25-O-deacetyl-3′-hydroxy-5′-[4-ethylcarbamylmethyl-1-piperidinyl]benzoxazinorifamycin] | >8 |
| COC1C=COC2(C)Oc3c(C)c(O)c4c(=O)c(c5oc6cc(N7CCC(c8ccccc8)CC7)cc(O)c6nc-5c4c3C2=O)NC(=O)C(C)=CC=CC(C)C(O)C(C)C(O)C(C)C(O)C1C (centres unmarked) [Compound 62, 25-O-deacetyl-3′-hydroxy-5′-[4-phenyl-1-piperidinyl]benzoxazinorifamycin] | >8 |
| COCCOC(=O)NC1CCN(c2cc(O)c3nc4c5c6c7c(C)c(O)c5c(=O)c(c-4oc3c2)NC(=O)C(C)=CC=CC(C)C(O)C(C)C(O)C(C)C(O)C(C)C(OC)C=COC(C)(O7)C6=O)CC1 (centres unmarked) [Compound 63, 25-O-deacetyl-3′-hydroxy-5′-[4-methoxyethylcarbamyl-1-piperidinyl]benzoxazinorifamycin] | 8 (≈ 8.34 µM) |
